The target in assay [1] is T1, E3 ubiquitin-protein ligase XIAP (Homo sapiens, UniProt P98170). The assay is described as follows: Counter Screen using XIAP-Bir3 for Chemical Antagonists of Bir1/2 domains of IAP-family anti-apoptotic proteins. [Related pubchem assays (depositor defined):AID1018, AID1449, AID1514, AID1638, AID1749, AID1750, AID488957, AID488963].
The target in assay [2] is T1, E3 ubiquitin-protein ligase XIAP. Briefly: small molecules displacing peptide from XIAP – biochemical, IAP family, fluorescence polarization (AID 1018). In kind it is functional.
The target of assay [3] is Cytochrome P450 2C9 (Homo sapiens, UniProt P11712).
Cytochrome P450 2C9, sequence (P11712 whole entry): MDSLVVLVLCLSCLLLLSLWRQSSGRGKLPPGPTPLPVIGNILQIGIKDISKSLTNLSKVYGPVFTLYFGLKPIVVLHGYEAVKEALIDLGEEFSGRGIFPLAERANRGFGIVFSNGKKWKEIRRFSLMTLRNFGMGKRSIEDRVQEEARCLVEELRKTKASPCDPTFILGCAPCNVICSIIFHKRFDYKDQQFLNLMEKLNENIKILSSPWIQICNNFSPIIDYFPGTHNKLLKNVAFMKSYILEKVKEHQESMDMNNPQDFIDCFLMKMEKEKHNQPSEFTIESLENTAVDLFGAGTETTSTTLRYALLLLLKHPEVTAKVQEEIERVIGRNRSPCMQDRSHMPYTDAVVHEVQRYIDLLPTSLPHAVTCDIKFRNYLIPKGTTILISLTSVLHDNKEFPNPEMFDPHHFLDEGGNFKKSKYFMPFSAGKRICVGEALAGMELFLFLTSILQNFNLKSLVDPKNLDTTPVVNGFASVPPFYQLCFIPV
The nature of assay [4]: HPDE-C7 pancreatic duct cell viability loss – fluorescence, HTS (AID 430). In kind it is functional, cell-based. The following applies: Homo sapiens.
Assay [5] in a line: viability loss of HPDE-C7K cells – cell-based, fluorescence, HTS, primary screen (AID 431). In kind it is functional. The conditions noted are these: Homo sapiens.
Assay [6] addresses DNA dC->dU-editing enzyme APOBEC-3A (Homo sapiens, UniProt P31941). The assay is described as follows: A3A deaminase inhibition for selectivity – biochemical, dose response (AID 504722). In kind it is functional.
Assay [7] has as its target DNA dC->dU-editing enzyme APOBEC-3G (Homo sapiens, UniProt Q9HC16). Briefly: Dose Response confirmation of small molecule APOBEC3G DNA Deaminase Inhibitors via a fluorescence-based single-stranded DNA deaminase assay. [Related pubchem assays (depositor defined):AID493012, AID493028]. In kind it is functional.
Assay [8] can be described thus: A Cell Based Secondary Assay To Explore Cytotoxicity of Compounds that Sensitize Mycobacterium Tuberculosis to Beta-Lactam Antibiotics. In kind it is functional.
A short description of assay [9]: THP-1 cell cytotoxicity, dose response, cytotoxicity control for non-replicating M. tuberculosis project (AID 489025). In kind it is functional.
Assay [10] can be described thus: Vero E6 cell cytotoxicity, dose response, cytotoxicity control for non-replicating M. tuberculosis project, secondary assay (AID 492998). In kind it is functional, VeroE6. The following applies: Vero C1008.
A short description of assay [11]: cells. In kind it is functional.
Assay [12] has as its target SUMO-activating enzyme (Homo sapiens, UniProt Q9UBT2). The assay is described as follows: blockers of UBC9-mediated SUMO conjugation – biochemical, AlphaScreen, SUMOylation inhibitor project, confirmation (AID 2018). In kind it is functional.
Assay [13] deals with T2, Protein RecA (Mycobacterium tuberculosis, UniProt P9WHJ3).
T2 sequence (P9WHJ3 whole entry): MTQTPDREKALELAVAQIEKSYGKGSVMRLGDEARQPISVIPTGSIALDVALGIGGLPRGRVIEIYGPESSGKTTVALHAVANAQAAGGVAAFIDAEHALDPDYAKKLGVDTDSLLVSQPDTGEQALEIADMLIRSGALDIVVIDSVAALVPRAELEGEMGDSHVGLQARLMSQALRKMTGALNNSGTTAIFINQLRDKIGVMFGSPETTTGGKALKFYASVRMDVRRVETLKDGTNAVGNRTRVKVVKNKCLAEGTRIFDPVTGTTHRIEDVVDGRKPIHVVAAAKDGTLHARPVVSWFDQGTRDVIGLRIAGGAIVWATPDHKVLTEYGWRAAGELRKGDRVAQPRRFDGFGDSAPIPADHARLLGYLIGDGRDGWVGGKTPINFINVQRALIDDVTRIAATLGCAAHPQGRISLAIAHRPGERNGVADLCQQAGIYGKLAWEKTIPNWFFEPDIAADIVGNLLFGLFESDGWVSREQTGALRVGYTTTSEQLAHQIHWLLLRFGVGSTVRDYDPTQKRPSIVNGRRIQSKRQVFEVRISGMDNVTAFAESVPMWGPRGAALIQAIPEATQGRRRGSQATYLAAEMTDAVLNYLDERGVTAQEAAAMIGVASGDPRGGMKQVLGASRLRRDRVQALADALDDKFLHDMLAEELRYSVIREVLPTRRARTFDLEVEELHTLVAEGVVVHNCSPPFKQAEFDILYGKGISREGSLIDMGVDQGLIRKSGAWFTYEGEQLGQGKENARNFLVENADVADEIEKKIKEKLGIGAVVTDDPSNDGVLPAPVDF
The assay is described as follows: Fluorescence Cell-Free Homogeneous Dose Retest to Identify Inhibitors of RecA-Intein Splicing Activity. [Related pubchem assays (depositor defined):AID2097, AID2223, AID489010, AID492950]. In kind it is functional.

Assay [14] addresses T3, Replicative DNA helicase DnaB (Mycobacterium tuberculosis, UniProt P9WMR3).
T3 sequence (P9WMR3 whole entry): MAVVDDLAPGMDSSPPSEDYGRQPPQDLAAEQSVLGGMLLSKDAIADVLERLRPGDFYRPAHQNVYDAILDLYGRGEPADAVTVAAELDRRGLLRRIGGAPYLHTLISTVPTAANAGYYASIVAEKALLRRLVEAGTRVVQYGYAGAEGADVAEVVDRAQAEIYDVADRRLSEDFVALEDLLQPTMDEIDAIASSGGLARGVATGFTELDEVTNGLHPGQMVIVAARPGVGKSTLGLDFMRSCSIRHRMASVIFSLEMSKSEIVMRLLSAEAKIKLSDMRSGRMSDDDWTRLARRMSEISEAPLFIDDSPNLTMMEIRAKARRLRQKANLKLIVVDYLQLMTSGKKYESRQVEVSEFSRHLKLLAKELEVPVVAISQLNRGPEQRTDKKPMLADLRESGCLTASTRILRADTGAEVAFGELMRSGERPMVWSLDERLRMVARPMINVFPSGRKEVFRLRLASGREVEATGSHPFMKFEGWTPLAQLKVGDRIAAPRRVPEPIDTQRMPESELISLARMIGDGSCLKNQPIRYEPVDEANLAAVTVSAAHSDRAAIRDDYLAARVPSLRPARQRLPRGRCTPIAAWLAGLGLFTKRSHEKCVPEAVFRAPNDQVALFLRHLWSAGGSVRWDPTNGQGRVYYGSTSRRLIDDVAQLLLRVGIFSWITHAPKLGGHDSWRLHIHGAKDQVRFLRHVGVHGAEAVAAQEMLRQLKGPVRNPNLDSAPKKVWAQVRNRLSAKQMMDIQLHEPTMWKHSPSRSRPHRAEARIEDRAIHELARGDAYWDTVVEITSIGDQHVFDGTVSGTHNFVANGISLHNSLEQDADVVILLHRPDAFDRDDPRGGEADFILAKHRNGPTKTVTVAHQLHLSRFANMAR
The assay is described as follows: DnaB intein splicing inhibitors, dose response, biochemical, cell-free fluorescence (AID 449749). In kind it is functional.

The nature of assay [15]: M. tuberculosis H37Rv growth inhibitors, H37Rv strain (AID 1626). In kind it is functional.
Assay [16] has as its system Streptococcus sp. 'group A'. Briefly: Streptococcus pyogenes SK(-)GAS viability under kanamycin – luminescence, BacTiterGlo, confirmation, counter-screen for streptokinase expression inhibitor project, dose response (AID 1900). In kind it is functional, organism-based.
Assay [17] deals with T4, Hexokinase HKDC1 (Homo sapiens, UniProt Q2TB90).
T4 sequence (Q2TB90 whole entry): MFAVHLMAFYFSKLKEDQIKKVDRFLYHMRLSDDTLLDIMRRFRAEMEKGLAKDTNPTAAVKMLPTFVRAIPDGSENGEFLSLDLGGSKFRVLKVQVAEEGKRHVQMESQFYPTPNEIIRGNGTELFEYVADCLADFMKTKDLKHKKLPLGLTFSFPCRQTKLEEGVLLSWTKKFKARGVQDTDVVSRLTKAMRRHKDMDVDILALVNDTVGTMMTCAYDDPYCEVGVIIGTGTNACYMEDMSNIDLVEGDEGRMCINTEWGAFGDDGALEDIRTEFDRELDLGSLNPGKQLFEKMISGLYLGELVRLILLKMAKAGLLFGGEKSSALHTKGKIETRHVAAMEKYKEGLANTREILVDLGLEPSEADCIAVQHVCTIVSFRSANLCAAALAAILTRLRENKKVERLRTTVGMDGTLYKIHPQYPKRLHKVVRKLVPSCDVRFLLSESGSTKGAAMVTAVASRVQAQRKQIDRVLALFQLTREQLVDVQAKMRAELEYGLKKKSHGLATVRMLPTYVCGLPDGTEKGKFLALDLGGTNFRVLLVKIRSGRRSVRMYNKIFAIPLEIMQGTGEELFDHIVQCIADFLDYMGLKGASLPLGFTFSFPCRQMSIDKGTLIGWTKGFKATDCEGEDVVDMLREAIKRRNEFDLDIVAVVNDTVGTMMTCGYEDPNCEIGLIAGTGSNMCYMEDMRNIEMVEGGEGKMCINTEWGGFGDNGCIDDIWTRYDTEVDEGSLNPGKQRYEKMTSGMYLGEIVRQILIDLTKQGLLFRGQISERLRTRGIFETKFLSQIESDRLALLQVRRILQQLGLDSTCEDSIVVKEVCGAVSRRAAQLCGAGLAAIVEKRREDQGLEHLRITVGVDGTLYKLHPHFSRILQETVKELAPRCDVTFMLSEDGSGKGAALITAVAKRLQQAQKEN
Briefly: inhibition of HKDC1 glucose phosphorylation – biochemical, W721R variant, dose response (AID 504729). In kind it is functional.

Assay [18] concerns the target Large T antigen (Simian virus 40, UniProt P03070). In kind it is functional, Betapolyomavirus macacae.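 Also: Confirmatory-stage PubChem screen for compounds that inhibit SV40 T antigen.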
Assay [19] deals with Streptococcus. Briefly: GAS UMAA2166 growth inhibition – luminescence, BacTiterGlo, counter-screen for streptokinase expression inhibitor project, dose response (AID 1915).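 Also: potency for reduction of bacterial viability or growth.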 In kind it is functional, organism-based.
Assay [20] deals with T5, fMet-Leu-Phe receptor (Homo sapiens, UniProt P21462).
T5 sequence (P21462 whole entry): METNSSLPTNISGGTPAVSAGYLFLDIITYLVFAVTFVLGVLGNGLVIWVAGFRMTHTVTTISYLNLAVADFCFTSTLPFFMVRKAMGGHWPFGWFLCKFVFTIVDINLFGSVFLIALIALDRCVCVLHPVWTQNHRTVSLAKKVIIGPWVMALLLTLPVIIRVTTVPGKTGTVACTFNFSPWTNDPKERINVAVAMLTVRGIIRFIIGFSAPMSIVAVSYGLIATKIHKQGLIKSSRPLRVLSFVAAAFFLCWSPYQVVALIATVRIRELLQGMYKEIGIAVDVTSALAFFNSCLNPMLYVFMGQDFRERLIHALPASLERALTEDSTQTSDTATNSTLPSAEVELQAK
Briefly: formyl peptide receptor binders – dose response (AID 519). In kind it is functional.

The source of these data is ChEMBL document CHEMBL1201862, “PubChem BioAssay data set” (2004).

The source made the active and inactive calls.

T1 sequence (P98170 whole entry): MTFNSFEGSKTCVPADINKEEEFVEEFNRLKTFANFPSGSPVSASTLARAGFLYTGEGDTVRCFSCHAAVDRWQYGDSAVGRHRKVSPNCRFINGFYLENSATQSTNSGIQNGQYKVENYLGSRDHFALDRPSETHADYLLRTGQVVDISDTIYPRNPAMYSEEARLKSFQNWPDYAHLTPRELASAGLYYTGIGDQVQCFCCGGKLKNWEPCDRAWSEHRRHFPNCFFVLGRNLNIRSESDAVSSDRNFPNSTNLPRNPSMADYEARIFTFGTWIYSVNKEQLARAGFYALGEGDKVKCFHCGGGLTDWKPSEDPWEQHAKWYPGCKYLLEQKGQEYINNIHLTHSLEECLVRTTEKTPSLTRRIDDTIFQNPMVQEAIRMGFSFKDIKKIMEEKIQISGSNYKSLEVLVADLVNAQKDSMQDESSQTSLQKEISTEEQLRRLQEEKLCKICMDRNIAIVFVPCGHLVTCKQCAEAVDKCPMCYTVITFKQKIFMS
DNA dC->dU-editing enzyme APOBEC-3A, sequence (P31941 whole entry): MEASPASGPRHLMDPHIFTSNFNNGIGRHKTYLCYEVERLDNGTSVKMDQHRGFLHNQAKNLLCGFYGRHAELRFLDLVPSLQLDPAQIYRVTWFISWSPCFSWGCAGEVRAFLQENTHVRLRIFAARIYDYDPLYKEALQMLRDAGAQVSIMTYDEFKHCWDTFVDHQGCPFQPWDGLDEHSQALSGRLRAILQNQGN
DNA dC->dU-editing enzyme APOBEC-3G, sequence (Q9HC16 whole entry): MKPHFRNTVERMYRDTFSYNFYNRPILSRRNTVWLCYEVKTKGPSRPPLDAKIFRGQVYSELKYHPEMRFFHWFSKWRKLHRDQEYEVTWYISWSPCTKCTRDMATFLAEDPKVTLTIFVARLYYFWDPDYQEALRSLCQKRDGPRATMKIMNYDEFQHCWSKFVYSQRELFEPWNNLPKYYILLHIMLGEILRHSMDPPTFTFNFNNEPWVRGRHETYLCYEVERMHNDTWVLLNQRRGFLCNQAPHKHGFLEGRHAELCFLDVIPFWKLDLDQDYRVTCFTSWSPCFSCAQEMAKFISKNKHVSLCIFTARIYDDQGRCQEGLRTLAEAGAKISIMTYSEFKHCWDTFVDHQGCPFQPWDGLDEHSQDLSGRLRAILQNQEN
Large T antigen, sequence (P03070 whole entry): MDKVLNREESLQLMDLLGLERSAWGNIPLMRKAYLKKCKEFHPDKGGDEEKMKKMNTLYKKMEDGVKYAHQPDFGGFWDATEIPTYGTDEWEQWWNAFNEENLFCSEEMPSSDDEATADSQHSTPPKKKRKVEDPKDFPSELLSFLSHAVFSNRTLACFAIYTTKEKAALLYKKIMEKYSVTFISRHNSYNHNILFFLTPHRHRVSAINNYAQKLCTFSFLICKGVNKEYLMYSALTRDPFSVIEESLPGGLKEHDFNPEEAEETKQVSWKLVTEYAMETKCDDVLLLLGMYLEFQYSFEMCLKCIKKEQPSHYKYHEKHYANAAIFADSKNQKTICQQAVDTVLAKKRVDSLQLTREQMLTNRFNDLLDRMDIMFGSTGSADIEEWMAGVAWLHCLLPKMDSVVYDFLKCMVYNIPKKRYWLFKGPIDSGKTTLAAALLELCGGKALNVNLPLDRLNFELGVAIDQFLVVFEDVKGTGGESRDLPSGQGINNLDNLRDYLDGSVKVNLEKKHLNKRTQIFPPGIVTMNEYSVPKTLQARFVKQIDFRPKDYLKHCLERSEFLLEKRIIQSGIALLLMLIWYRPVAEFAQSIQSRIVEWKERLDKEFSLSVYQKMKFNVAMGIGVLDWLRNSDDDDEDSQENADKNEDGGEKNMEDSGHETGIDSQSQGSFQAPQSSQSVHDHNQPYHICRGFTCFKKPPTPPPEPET
SUMO-activating enzyme, sequence (Q9UBE0 whole entry): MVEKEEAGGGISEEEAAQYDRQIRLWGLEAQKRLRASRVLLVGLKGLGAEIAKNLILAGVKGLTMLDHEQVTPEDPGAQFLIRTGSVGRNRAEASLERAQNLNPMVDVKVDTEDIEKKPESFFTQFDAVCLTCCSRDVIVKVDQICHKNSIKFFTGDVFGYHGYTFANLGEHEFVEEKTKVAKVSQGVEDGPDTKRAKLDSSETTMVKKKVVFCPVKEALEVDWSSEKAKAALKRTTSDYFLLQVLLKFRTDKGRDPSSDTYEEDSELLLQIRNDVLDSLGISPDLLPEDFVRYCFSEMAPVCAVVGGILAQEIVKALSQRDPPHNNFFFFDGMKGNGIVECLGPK
SUMO-activating enzyme, sequence (Q9UBT2 whole entry): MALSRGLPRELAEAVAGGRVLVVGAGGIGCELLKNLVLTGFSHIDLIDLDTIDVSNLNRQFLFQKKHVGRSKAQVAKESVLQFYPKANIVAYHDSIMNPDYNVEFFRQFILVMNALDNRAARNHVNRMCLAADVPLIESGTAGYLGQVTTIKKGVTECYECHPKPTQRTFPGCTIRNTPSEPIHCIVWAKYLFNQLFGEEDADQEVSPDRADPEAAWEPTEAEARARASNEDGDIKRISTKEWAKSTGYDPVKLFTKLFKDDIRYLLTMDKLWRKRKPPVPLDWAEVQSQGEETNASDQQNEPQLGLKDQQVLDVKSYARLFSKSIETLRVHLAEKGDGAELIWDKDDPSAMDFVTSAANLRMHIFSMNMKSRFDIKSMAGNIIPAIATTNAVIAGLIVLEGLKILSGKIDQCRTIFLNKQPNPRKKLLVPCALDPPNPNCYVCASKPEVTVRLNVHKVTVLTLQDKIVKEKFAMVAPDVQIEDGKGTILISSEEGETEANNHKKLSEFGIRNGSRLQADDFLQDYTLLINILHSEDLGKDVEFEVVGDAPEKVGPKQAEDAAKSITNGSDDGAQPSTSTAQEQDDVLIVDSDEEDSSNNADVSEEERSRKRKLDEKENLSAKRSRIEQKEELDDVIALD

For `COCCn1nnnc1C(C(C)C)N(Cc1ccccc1)Cc1cc2cc(OC)ccc2nc1O` (centres undefined), the IC50 was > 100 µM (inactive) in assay [1] and > 100 µM (not active) in assay [2].

For the compound `CS(=O)(=O)N(Cc1cc2ccccc2nc1O)C1CCCCC1`, in assay [3], the half-maximal activity concentration (AC50) was 39.8 µM (inconclusive). For the same compound, the EC50 in [4] and in assay [5] was > 20 µM (not active) throughout.

Turning to `CC(=O)N1CC[n+]2c(-c3ccc([N+](=O)[O-])cc3)csc21`, the IC50 in [6] is > 100 µM (inactive); in assay [7], 13.3 µM (active).

As for `O=C(CCS(=O)(=O)c1ccc(F)cc1)Nc1nnc(-c2cccs2)o1`, in [8], the CC50 is 24.3 µM (active).

Consider `COc1ccc(NC(=O)CCCN2C(=O)/C(=C\c3ccco3)SC2=S)cc1`, for which the IC50 in assay [1] is > 25 µM (inactive); in assay [2], > 100 µM (not active); in [11], 23.4 µM (active). Moreover, the CC50 in [9] was > 40 µM (active); in assay [10], 16 µM (active).

For `O=C1N/C(=N\c2ccc3ccccc3c2)S/C1=C/c1ccco1`, in assay [12], the IC50 was 14 µM (active).

Regarding `CCOc1ccc(N2C(=O)/C(=C\c3ccc(OC)c(O)c3)S(=O)(=O)C2c2cccc([N+](=O)[O-])c2)cc1` (centres undefined), the EC50 in [13] was 6.38 µM (active). Also, the AC50 in assay [14] is 10.2 µM (active). The IC50 in assay [15] was > 100 µM (active).

With `CCCCNC(=O)c1sc(=S)n2c1[nH]c(=O)c1ccccc12`, the EC50 is 11.2 µM (active) in assay [16] and 13.1 µM (active) in assay [19]. Further, the IC50 in assay [17] was 18.8 µM (active); in [18], 79.6 µM (active). Moreover, in assay [20], the Ki is 19.6 µM (inactive).

In the case of `Cc1cc(C)c(N/C=C2/C(=O)N(c3nccs3)C(=O)c3ccccc32)c(C)c1`, the CC50 in [8] was > 40 µM (active).

With `CCCc1nc2oc3c(NCCOCCO)ncnc3c2c2c1COC(C)(C)C2`, in [17], the IC50 is 12.4 µM (active).

For the compound `Cc1nn(C)c(C)c1NC(=O)CCCSc1nc(-c2ccco2)cc(C(F)(F)F)n1`, the CC50 in assay [8] is > 40 µM (active).

Regarding `Cn1cccc1/C=N/n1c(S)nnc1-c1ccccc1`, the IC50 in [6] was > 100 µM (inactive); in assay [7] it was 1.78 µM (active).

Regarding `COc1ccccc1/C=C/C=N/n1c(S)nnc1-c1ccccn1`, the IC50 in assay [6] was > 100 µM (inactive); in assay [7], 2.67 µM (active).
